From patent US11739070B2, “C5A receptor modulators” (IDORSIA PHARMACEUTICALS LTD, priority 2018, dated 2023) come the findings set out here.

Molecules are shown by their SMILES.

One may read the IC50 as the point on the concentration scale where inhibition reaches its midpoint.

This assay addresses T1, C5AR1 (Homo sapiens, UniProt P21730).
T1 construct: host or cells: CHO-K1
T1 sequence (P21730 1-350): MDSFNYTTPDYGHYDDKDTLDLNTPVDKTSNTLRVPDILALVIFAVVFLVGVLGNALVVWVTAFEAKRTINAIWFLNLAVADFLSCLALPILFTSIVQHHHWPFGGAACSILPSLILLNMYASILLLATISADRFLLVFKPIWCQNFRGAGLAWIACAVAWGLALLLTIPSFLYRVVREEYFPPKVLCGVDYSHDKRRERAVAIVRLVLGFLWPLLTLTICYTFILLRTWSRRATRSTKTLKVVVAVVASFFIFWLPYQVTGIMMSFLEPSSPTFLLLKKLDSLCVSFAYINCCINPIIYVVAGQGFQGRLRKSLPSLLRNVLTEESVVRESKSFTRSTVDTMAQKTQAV
The experiment in a line: hC5a DISCO IC50 assay (PathHunter beta-arrestin, antagonist mode). The format is cell-based. The following applies: CHO-K1 C5AR1 beta-arrestin cell line; antagonist vs 1-10 nM C5a agonist; geometric mean values; read-out: C5aR IC50. The method in brief:
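Antagonist added first, then 1-10 nM C5a agonist; cells incubated 1.5 h at 37 °C. Beta-arrestin signal developed with PathHunter detection reagent, 45 min at RT. IC50 in nmol/l from serial antagonist dilutions, reported as geometric mean of several measurements.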
`COc1cccc2c1n(Cc1ccccc1C(F)(F)F)c(=O)n2[C@@H]1CCN(c2c(F)cccc2CN2CCC(O)CC2)C1` [Example 134, 1-{(R)-1-[2-Fluoro-6-(4-hydroxy-piperidin-1-ylmethyl)-phenyl]-pyrrolidin-3-yl}-4-methoxy-3-(2-trifluoromethyl-benzyl)-1,3-dihydro-benzoimidazol-2-one]: the IC50 is 2260 nM.

In the case of `COc1cccc2c1n(Cc1ccccc1C(F)(F)F)c(=O)n2C1CCN(c2cc(C3CC3)nn2C)CC1` [Example 21, 1-[1-(5-Cyclopropyl-2-methyl-2H-pyrazol-3-yl)-piperidin-4-yl]-4-methoxy-3-(2-trifluoromethyl-benzyl)-1,3-dihydro-benzoimidazol-2-one], the IC50 was determined as 3440 nM.

`COc1cccc2c1n(Cc1ccccc1C(F)(F)F)c(=O)n2[C@@H]1CCN(c2c(F)cccc2CC=O)C1` [Example 126, (3-Fluoro-2-{(R)-3-[4-methoxy-2-oxo-3-(2-trifluoromethyl-benzyl)-2,3-dihydro-benzoimidazol-1-yl]-pyrrolidin-1-yl}-phenyl)-acetaldehyde]: the IC50 is 20 nM.

Turning to `COc1cccc2c1n(Cc1ccccc1OC1CC1)c(=O)n2[C@@H]1CCN(c2c(C)cccc2F)C1` [Example 208, 3-(2-Cyclopropoxy-benzyl)-1-[(R)-1-(2-fluoro-6-methyl-phenyl)-pyrrolidin-3-yl]-4-methoxy-1,3-dihydro-benzoimidazol-2-one], the IC50 was 19 nM.

For the compound `COc1cccc2c1n(Cc1ccccc1C(F)(F)F)c(=O)n2[C@@H]1CCN(c2nnc(C(C)C)o2)C1` [Example 69, 1-[(R)-1-(5-Isopropyl-[1,3,4]oxadiazol-2-yl)-pyrrolidin-3-yl]-4-methoxy-3-(2-trifluoromethyl-benzyl)-1,3-dihydro-benzoimidazol-2-one], the IC50 worked out at 2820 nM.

For the compound `COc1cccc2c1n(Cc1ccccc1C(F)(F)F)c(=O)n2C1CCN(C(C)C)CC1` [Example 35, 1-(1-Isopropyl-piperidin-4-yl)-4-methoxy-3-(2-trifluoromethyl-benzyl)-1,3-dihydro-benzoimidazol-2-one], the IC50 stood at 4510 nM.

Turning to `COc1nccc2c1n(Cc1ccccc1C(F)(F)F)c(=O)n2[C@@H]1CCN(c2c(C)ccnc2F)C1` [Example 48, 1-[(R)-1-(2-Fluoro-4-methyl-pyridin-3-yl)-pyrrolidin-3-yl]-4-methoxy-3-(2-trifluoromethyl-benzyl)-1,3-dihydro-imidazo[4,5-c]pyridin-2-one], the IC50 is 165 nM.

`COc1cc(Cl)nnc1Cn1c(=O)n([C@@H]2CCN(c3c(C)cccc3F)C2)c2cccc(OC)c21` [Example 92, 3-(6-Chloro-4-methoxy-pyridazin-3-ylmethyl)-1-[(R)-1-(2-fluoro-6-methyl-phenyl)-pyrrolidin-3-yl]-4-methoxy-1,3-dihydro-benzoimidazol-2-one]: the IC50 is 2020 nM.

On to `COc1cccc2c1n(Cc1nccnc1OC(C)C)c(=O)n2[C@@H]1CCN(c2c(C)cccc2F)C1` [Example 177, 1-[(R)-1-(2-Fluoro-6-methyl-phenyl)-pyrrolidin-3-yl]-3-(3-isopropoxy-pyrazin-2-ylmethyl)-4-methoxy-1,3-dihydro-benzoimidazol-2-one], for which the IC50 worked out at 24 nM.

In the case of `COc1cccc2c1n(Cc1ccccc1C(F)(F)F)c(=O)n2C1CCN(c2ccccc2OC2CCOCC2)CC1` [Example 239, 4-Methoxy-1-{1-[2-(tetrahydro-pyran-4-yloxy)-phenyl]-piperidin-4-yl}-3-(2-trifluoromethyl-benzyl)-1,3-dihydro-benzoimidazol-2-one], the IC50 worked out at 82 nM.

For the compound `COc1cccc2c1n(Cc1ccccc1C(F)(F)F)c(=O)n2[C@@H]1CCN(c2c(Cl)c(C)nn2C)C1` [Example 80, 1-[(R)-1-(4-Chloro-2,5-dimethyl-2H-pyrazol-3-yl)-pyrrolidin-3-yl]-4-methoxy-3-(2-trifluoromethyl-benzyl)-1,3-dihydro-benzoimidazol-2-one], the IC50 turned out to be 157 nM.

Regarding `COc1cccc2c1n(Cc1ccccc1OC1CCC1)c(=O)n2C1CCN(c2c(C)cccc2F)CC1` [Example 226, 3-(2-Cyclobutoxy-benzyl)-1-[1-(2-fluoro-6-methyl-phenyl)-piperidin-4-yl]-4-methoxy-1,3-dihydro-benzoimidazol-2-one], the 50% inhibitory concentration (IC50) is 36 nM.

For the compound `COc1cccc2c1n(Cc1ccccc1C(F)(F)F)c(=O)n2C1CN(C(=O)OC(C)(C)C)C1` [Example 213, 3-[4-Methoxy-2-oxo-3-(2-trifluoromethyl-benzyl)-2,3-dihydro-benzoimidazol-1-yl]-azetidine-1-carboxylic acid tert-butyl ester], the 50% inhibitory concentration (IC50) was 469 nM.

On to `COc1cccc2c1n(Cc1ccccc1OC(F)(F)F)c(=O)n2[C@@H]1CCN(C(=O)OC(C)(C)C)C1` [Example 20, (R)-3-[4-Methoxy-2-oxo-3-(2-trifluoromethoxy-benzyl)-2,3-dihydro-benzoimidazol-1-yl]-pyrrolidine-1-carboxylic acid tert-butyl ester], for which the 50% inhibitory concentration (IC50) was determined as 36 nM.

Consider `COc1cccc2c1n(Cc1cccnc1C(F)(F)F)c(=O)n2C1CCN(c2c(F)cccc2F)CC1` [Example 55, 1-[1-(2,6-Difluoro-phenyl)-piperidin-4-yl]-4-methoxy-3-(2-trifluoromethyl-pyridin-3-ylmethyl)-1,3-dihydro-benzoimidazol-2-one], for which the IC50 worked out at 178 nM.

Regarding `COc1cccc2c1n(Cc1ccccc1C(F)(F)F)c(=O)n2C1CCN(c2ccccc2OCCO)CC1` [Example 238, 1-{1-[2-(2-Hydroxy-ethoxy)-phenyl]-piperidin-4-yl}-4-methoxy-3-(2-trifluoromethyl-benzyl)-1,3-dihydro-benzoimidazol-2-one], the IC50 is 133 nM.

Consider `COc1nccc2c1n(Cc1ccccc1C(F)(F)F)c(=O)n2[C@@H]1CCN(c2c(C)cccc2F)C1` [Example 50, 1-[(R)-1-(2-Fluoro-6-methyl-phenyl)-pyrrolidin-3-yl]-4-methoxy-3-(2-trifluoromethyl-benzyl)-1,3-dihydro-imidazo[4,5-c]pyridin-2-one], for which the concentration for half-maximal inhibition (IC50) was 42 nM.

In the case of `COc1ncncc1Cn1c(=O)n(C2CCN(c3c(F)cccc3C#N)CC2)c2cccc(OC)c21` [Example 113, 3-Fluoro-2-{4-[4-methoxy-3-(4-methoxy-pyrimidin-5-ylmethyl)-2-oxo-2,3-dihydro-benzoimidazol-1-yl]-piperidin-1-yl}-benzonitrile], the IC50 came to 2240 nM.

Regarding `COc1cccc2c1n(Cc1ccccc1C(F)(F)F)c(=O)n2[C@@H]1CCN(c2c(F)cccc2CN2CCC(OC)C2)C1` (stereo partly drawn) [Example 138, 1-{(R)-1-[2-Fluoro-6-(3-methoxy-pyrrolidin-1-ylmethyl)-phenyl]-pyrrolidin-3-yl}-4-methoxy-3-(2-trifluoromethyl-benzyl)-1,3-dihydro-benzoimidazol-2-one], the IC50 came out at 156 nM.

Regarding `COc1cccc2c1n([C@@H](C)c1ccccc1C(F)(F)F)c(=O)n2C1CCN(c2c(C)cccc2F)C1` (stereo partly drawn) [Example 219, 1-[1-(2-Fluoro-6-methyl-phenyl)-pyrrolidin-3-yl]-4-methoxy-3-[(S)-1-(2-trifluoromethyl-phenyl)-ethyl]-1,3-dihydro-benzoimidazol-2-one], the half-maximal inhibitory concentration (IC50) stood at 34 nM.

`COc1cccc2c1n(Cc1ccccc1C(F)(F)F)c(=O)n2[C@@H]1CCN(c2c(F)cccc2C(C)OC)C1` (stereo partly drawn) [Example 148, 1-{(R)-1-[2-Fluoro-6-(1-methoxy-ethyl)-phenyl]-pyrrolidin-3-yl}-4-methoxy-3-(2-trifluoromethyl-benzyl)-1,3-dihydro-benzoimidazol-2-one]: the IC50 amounted to 28 nM.

Take `COc1cccc2c1n(Cc1ccccc1C(F)(F)F)c(=O)n2C1CCN(c2c(F)cccc2C=O)C(C)C1` (centres unmarked) [Example 145, 3-Fluoro-2-{4-[4-methoxy-2-oxo-3-(2-trifluoromethyl-benzyl)-2,3-dihydro-benzoimidazol-1-yl]-2-methyl-piperidin-1-yl}-benzaldehyde]: the IC50 was found to be 16 nM.

Regarding `COC(=O)N1CC[C@@H](n2c(=O)n(Cc3ccccc3C(F)(F)F)c3c(OC)cccc32)C1` [Example 26, (R)-3-[4-Methoxy-2-oxo-3-(2-trifluoromethyl-benzyl)-2,3-dihydro-benzoimidazol-1-yl]-pyrrolidine-1-carboxylicacid methyl ester], the IC50 turned out to be 459 nM.

`Cc1cccc(C)c1N1CC[C@@H](n2c(=O)n(Cc3ccccc3C(F)(F)F)c3c(=O)[nH]ccc32)C1` [Example 93, 1-[(R)-1-(2,6-Dimethyl-phenyl)-pyrrolidin-3-yl]-3-(2-trifluoromethyl-benzyl)-3,5-dihydro-1H-imidazo[4,5-c]pyridine-2,4-dione]: the IC50 was found to be 149 nM.

Consider `COc1cccc2c1n(Cc1nnc(Cl)cc1OC(C)C)c(=O)n2[C@@H]1CCN(c2c(C)cccc2F)C1` [Example 172, 3-(6-Chloro-4-isopropoxy-pyridazin-3-ylmethyl)-1-[(R)-1-(2-fluoro-6-methyl-phenyl)-pyrrolidin-3-yl]-4-methoxy-1,3-dihydro-benzoimidazol-2-one], for which the IC50 turned out to be 275 nM.

Turning to `COc1cccc2c1n(Cc1ccccc1C(F)(F)F)c(=O)n2C1CCN(c2c(C)ccnc2C#N)CC1` [Example 246, 4-[4-Methoxy-2-oxo-3-(2-trifluoromethyl-benzyl)-2,3-dihydro-benzoimidazol-1-yl]-4′-methyl-3,4,5,6-tetrahydro-2H-[1,3′]bipyridinyl-2′-carbonitrile], the IC50 was found to be 39 nM.
